{
  "source": "patent US9050301B2",
  "about": "“Pharmaceutical composition for treatment of corneal endothelial wounds containing angiogenin” (Chung-Ang University Industry-Academy Cooperation Foundation, priority 2013, dated 2015)",
  "format_in_all_cases": "cell-based, human",
  "conditions_in_all_cases": "angiogenin 5 μg/ml",
  "key": {"eNOS": {"test_system": "eNOS", "assay": "Western blot of angiogenin lower pathway, eNOS", "experimental": "(§1) The culture medium containing 5 μg/ml of angiogenin was treated with the cultured human corneal endothelial cells for 5 minutes, 10 minutes, 30 minutes, 1 hour, and 3 hours. Afterwards, according to the treatment times, expression aspects of Akt, eNOS, and Erk1/2 genes targeting the lower pathway of angiogenin were analyzed. First, a PRO-PREP™ protein extracting solution (Intron Biotechnology, Seongnam, Korea) was used to separate the total proteins from the corneal endothelial cells. The total proteins (30 μg/sample) were heat-treated at a temperature of about 100° C. for 5 minutes, and then, 10% sodiumdodecyl sulfate polyacrylamide (SDS-PAGE) gel was used to perform electrophoresis. The proteins separated according to molecular weights thereof were transferred to a polyvinylidene fluoride (PVDF) membrane, followed by being blocked by 5% BSA dissolved in 1× tris-buffered saline (TBS) at room temperature for 1 hour. […] The ECL western blotting detection reagent (Amersham Bioscience, Piscataway, USA) was used in terms of luminescence, and then, images were detected by using the same reagent for ChemiDoc™ XRS system (Bio-Rad, Hercules, USA)."}, "Akt": {"test_system": "Akt", "assay": "Western blot of angiogenin lower pathway, Akt", "experimental": "as §1"}, "Erk1/2": {"test_system": "Erk1/2", "assay": "Western blot of angiogenin lower pathway, Erk1/2", "experimental": "as §1"}},
  "data": [
    {"substance": "Angiogenin: 14.4-kDa single chain protein of 123 amino acids, secreted protein capable of inducing angiogenesis", "values": [
      {"measurement": "Time of maximal p-eNOS expression after angiogenin treatment", "setting": "eNOS", "value": 3, "unit": "h"},
      {"measurement": "Relative expression of phosphate (p-form/t-form) of eNOS compared with the control group", "setting": "eNOS; 5 minutes to 3 hours", "value": "increased extent of relative expression of phosphate (p-form/t-form)"},
      {"measurement": "Time of maximal p-Akt expression after angiogenin treatment", "setting": "Akt", "value": 10, "unit": "min"},
      {"measurement": "Relative expression of phosphate (p-form/t-form) of Akt compared with the control group", "setting": "Akt; 5 minutes to 3 hours", "value": "increased extent of relative expression of phosphate (p-form/t-form)"},
      {"measurement": "Time of maximal p-Erk1/2 expression after angiogenin treatment", "setting": "Erk1/2", "value": 30, "unit": "min"},
      {"measurement": "Relative expression of phosphate (p-form/t-form) of Erk1/2 compared with the control group", "setting": "Erk1/2; 5 minutes to 3 hours", "value": "increased extent of relative expression of phosphate (p-form/t-form)"}
    ]}
  ]
}
